Data published in PubChem BioAssay (NCI).
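Each compound was tested at five concentrations against cells in 96-well plates for 48 hours. GI50 marks 50% less growth. The concentration for full growth arrest is given as TGI.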

Key:
Experiment in all cases: NCI tumour cell line growth inhibition, 48 h
MDA-MB-435 = tested on: MDA-MB-435
ACHN renal = tested on: ACHN renal
HOP-92 NSCLC = tested on: HOP-92 NSCLC
OVCAR-8 ovarian = tested on: OVCAR-8 ovarian
SK-OV-3 ovarian = tested on: SK-OV-3 ovarian
HL-60(TB) leukemia = tested on: HL-60(TB) leukemia
TK-10 renal = tested on: TK-10 renal
HCT-116 colon = tested on: HCT-116 colon
UACC-257 melanoma = tested on: UACC-257 melanoma
SW-620 colon = tested on: SW-620 colon
MALME-3M melanoma = tested on: MALME-3M melanoma
A549 NSCLC = tested on: A549 NSCLC
RPMI-8226 leukemia = tested on: RPMI-8226 leukemia
OVCAR-4 ovarian = tested on: OVCAR-4 ovarian
T-47D breast = tested on: T-47D breast
SF-539 CNS = tested on: SF-539 CNS
COLO 205 colon = tested on: COLO 205 colon
SK-MEL-2 melanoma = tested on: SK-MEL-2 melanoma
OVCAR-3 ovarian = tested on: OVCAR-3 ovarian
NCI-H522 lung = tested on: NCI-H522 lung
UO-31 renal = tested on: UO-31 renal
HT29 colon = tested on: HT29 colon
CAKI-1 renal = tested on: CAKI-1 renal
IGROV1 ovarian = tested on: IGROV1 ovarian
LOX IMVI melanoma = tested on: LOX IMVI melanoma
SNB-19 CNS = tested on: SNB-19 CNS
MDA-MB-231 breast = tested on: MDA-MB-231 breast
HOP-62 NSCLC = tested on: HOP-62 NSCLC
SF-268 CNS = tested on: SF-268 CNS
NCI-H23 lung = tested on: NCI-H23 lung
K-562 leukemia = tested on: K-562 leukemia
BT-549 breast = tested on: BT-549 breast
SR leukemia = tested on: SR leukemia
DU-145 prostate = tested on: DU-145 prostate
SN12C renal = tested on: SN12C renal
UACC-62 melanoma = tested on: UACC-62 melanoma
NCI-H460 lung = tested on: NCI-H460 lung
U251 CNS = tested on: U251 CNS
MOLT-4 leukemia = tested on: MOLT-4 leukemia
HS 578T breast = tested on: HS 578T breast
MCF7 breast = tested on: MCF7 breast
786-0 renal = tested on: 786-0 renal
SK-MEL-28 melanoma = tested on: SK-MEL-28 melanoma
RXF 393 renal = tested on: RXF 393 renal
HCT-15 colon = tested on: HCT-15 colon
A498 renal = tested on: A498 renal
SK-MEL-5 melanoma = tested on: SK-MEL-5 melanoma
HCC-2998 colon = tested on: HCC-2998 colon
NCI/ADR-RES ovarian = tested on: NCI/ADR-RES ovarian
OVCAR-5 ovarian = tested on: OVCAR-5 ovarian
KM12 colon = tested on: KM12 colon
NCI-H226 lung = tested on: NCI-H226 lung
CCRF-CEM leukemia = tested on: CCRF-CEM leukemia
PC-3 prostate = tested on: PC-3 prostate

SMILES: Oc1ccc(/C=N/NC(=S)Nc2ccccc2)nc1
- GI50 (MDA-MB-435): 2.19 µM
- TGI (MDA-MB-435): > 100 µM
- GI50 (ACHN renal): 0.552 µM
- TGI (ACHN renal): > 100 µM
- GI50 (HOP-92 NSCLC): 0.439 µM
- TGI (HOP-92 NSCLC): 6.92 µM
- GI50 (OVCAR-8 ovarian): 0.586 µM
- TGI (OVCAR-8 ovarian): > 100 µM
- GI50 (SK-OV-3 ovarian): 0.748 µM
- TGI (SK-OV-3 ovarian): 32.6 µM
- GI50 (HL-60(TB) leukemia): 1.55 µM
- TGI (HL-60(TB) leukemia): 6.77 µM
- GI50 (TK-10 renal): 4.18 µM
- TGI (TK-10 renal): > 100 µM
- GI50 (HCT-116 colon): 1.42 µM
- TGI (HCT-116 colon): > 100 µM
- GI50 (UACC-257 melanoma): 2.18 µM
- TGI (UACC-257 melanoma): 6.84 µM
- GI50 (SW-620 colon): 2.07 µM
- TGI (SW-620 colon): > 100 µM
- GI50 (MALME-3M melanoma): 2.19 µM
- TGI (MALME-3M melanoma): 30.6 µM
- GI50 (A549 NSCLC): 2.33 µM
- TGI (A549 NSCLC): 26.3 µM
- GI50 (RPMI-8226 leukemia): 3.44 µM
- TGI (RPMI-8226 leukemia): > 100 µM
- GI50 (OVCAR-4 ovarian): 0.579 µM
- TGI (OVCAR-4 ovarian): > 100 µM
- GI50 (T-47D breast): 1.54 µM
- TGI (T-47D breast): > 100 µM
- GI50 (SF-539 CNS): 0.851 µM
- TGI (SF-539 CNS): 6.19 µM
- GI50 (COLO 205 colon): 3.31 µM
- TGI (COLO 205 colon): > 100 µM
- GI50 (SK-MEL-2 melanoma): 1.54 µM
- TGI (SK-MEL-2 melanoma): 44.1 µM
- GI50 (OVCAR-3 ovarian): 0.405 µM
- TGI (OVCAR-3 ovarian): > 100 µM
- GI50 (NCI-H522 lung): 1.94 µM
- TGI (NCI-H522 lung): 39.8 µM
- GI50 (UO-31 renal): 0.661 µM
- TGI (UO-31 renal): 16.8 µM
- GI50 (HT29 colon): 5.83 µM
- TGI (HT29 colon): > 100 µM
- GI50 (CAKI-1 renal): 0.667 µM
- TGI (CAKI-1 renal): > 100 µM
- GI50 (IGROV1 ovarian): 3.68 µM
- TGI (IGROV1 ovarian): > 100 µM
- GI50 (LOX IMVI melanoma): 0.464 µM
- TGI (LOX IMVI melanoma): 16.6 µM
- GI50 (SNB-19 CNS): 1.93 µM
- TGI (SNB-19 CNS): > 100 µM
- GI50 (MDA-MB-231 breast): 0.729 µM
- TGI (MDA-MB-231 breast): > 100 µM
- GI50 (HOP-62 NSCLC): 0.766 µM
- TGI (HOP-62 NSCLC): 7.29 µM
- GI50 (SF-268 CNS): 0.969 µM
- TGI (SF-268 CNS): > 100 µM
- GI50 (NCI-H23 lung): 3.34 µM
- TGI (NCI-H23 lung): > 100 µM
- GI50 (K-562 leukemia): 3.72 µM
- TGI (K-562 leukemia): > 100 µM
- GI50 (BT-549 breast): 1.7 µM
- TGI (BT-549 breast): > 100 µM
- GI50 (SR leukemia): 0.582 µM
- TGI (SR leukemia): > 100 µM
- GI50 (DU-145 prostate): 1.1 µM
- TGI (DU-145 prostate): > 100 µM
- GI50 (SN12C renal): 1.07 µM
- TGI (SN12C renal): > 100 µM
- GI50 (UACC-62 melanoma): 1.55 µM
- TGI (UACC-62 melanoma): 4.95 µM
- GI50 (NCI-H460 lung): 2.77 µM
- TGI (NCI-H460 lung): > 100 µM
- GI50 (U251 CNS): 0.65 µM
- TGI (U251 CNS): 81.8 µM
- GI50 (MOLT-4 leukemia): 3.26 µM
- TGI (MOLT-4 leukemia): > 100 µM
- GI50 (HS 578T breast): 9.84 µM
- TGI (HS 578T breast): > 100 µM
- GI50 (MCF7 breast): 2.73 µM
- TGI (MCF7 breast): > 100 µM
- GI50 (786-0 renal): 1.84 µM
- TGI (786-0 renal): 12.4 µM
- GI50 (SK-MEL-28 melanoma): 3.14 µM
- TGI (SK-MEL-28 melanoma): > 100 µM
- GI50 (RXF 393 renal): 0.667 µM
- TGI (RXF 393 renal): 4.91 µM
- GI50 (HCT-15 colon): 0.407 µM
- TGI (HCT-15 colon): > 100 µM
- GI50 (A498 renal): 3 µM
- TGI (A498 renal): > 100 µM
- GI50 (SK-MEL-5 melanoma): 0.754 µM
- TGI (SK-MEL-5 melanoma): 3.36 µM
- GI50 (HCC-2998 colon): 4.09 µM
- TGI (HCC-2998 colon): > 100 µM
- GI50 (NCI/ADR-RES ovarian): 1.43 µM
- TGI (NCI/ADR-RES ovarian): > 100 µM
- GI50 (OVCAR-5 ovarian): 7.09 µM
- TGI (OVCAR-5 ovarian): > 100 µM
- GI50 (KM12 colon): 1.91 µM
- TGI (KM12 colon): > 100 µM
- GI50 (NCI-H226 lung): 2.33 µM
- TGI (NCI-H226 lung): 6.83 µM
- GI50 (CCRF-CEM leukemia): 0.938 µM
- TGI (CCRF-CEM leukemia): > 100 µM
- GI50 (PC-3 prostate): 0.706 µM
- TGI (PC-3 prostate): > 100 µM
